# Experimental data as given in ChEMBL document CHEMBL1130765, “5-Aminomethylquinoxaline-2,3-diones, Part III: Arylamide derivatives as highly potent and selective glycine-site NMDA receptor antagonists” (Bioorg Med Chem Lett, 1998).
# Tests used:
# [1] = target: Glutamate receptor ionotropic, AMPA (Rattus norvegicus, UniProt P19490+P19491+P19492+P19493); test: In vitro binding assay for the displacement of [3H]AMPA from AMPA receptor; format: protein-complex assay
# [2] = target: Glutamate receptor ionotropic, NMDA 1 (Rattus norvegicus, UniProt P35439); test: In vitro binding assay for the displacement of [3H]MDL-105519 from the glycine-site of NMDA receptors
SMILES,IC50 [1],IC50 [2]
O=C(NCc1cc(Br)cc2[nH]c(=O)c(=O)[nH]c12)c1ccco1,6800 nM,40 nM
O=C(Cc1ccccc1)NCc1cc([N+](=O)[O-])cc2[nH]c(=O)c(=O)[nH]c12,28800 nM,40 nM
O=C(NCc1cc(Br)cc2nc(O)c(O)nc12)c1ccccc1,1700 nM,60 nM
COc1cc(C(=O)NCc2cc([N+](=O)[O-])cc3[nH]c(=O)c(=O)[nH]c23)cc(OC)c1OC,64 nM,200 nM
COc1cccc(CC(=O)NCc2cc(Br)cc3[nH]c(=O)c(=O)[nH]c23)c1,> 10000 nM,30 nM
COc1ccc(NC(=O)NCc2cc([N+](=O)[O-])cc3[nH]c(=O)c(=O)[nH]c23)cc1,300 nM,30 nM
O=C(NCc1cc(Br)cc2nc(O)c(O)nc12)c1cc(C(F)(F)F)cc(C(F)(F)F)c1,> 10000 nM,> 10000 nM
O=C(NCc1cc(Br)cc2[nH]c(=O)c(=O)[nH]c12)C(O)c1ccccc1 (stereo unspecified),~10000 nM,50 nM
NS(=O)(=O)c1ccc(C(=O)NCc2cc([N+](=O)[O-])cc3[nH]c(=O)c(=O)[nH]c23)cc1,200 nM,630 nM
O=C(NCc1cc(Br)cc2[nH]c(=O)c(=O)[nH]c12)C(=O)c1ccccc1,> 10000 nM,4000 nM
O=C(NCc1cc([N+](=O)[O-])cc2[nH]c(=O)c(=O)[nH]c12)c1ccccc1O,150 nM,40 nM
O=C(NCc1cc(Br)cc2[nH]c(=O)c(=O)[nH]c12)Oc1ccccc1,> 10000 nM,1500 nM
COc1ccccc1NC(=O)NCc1cc([N+](=O)[O-])cc2nc(O)c(O)nc12,630 nM,30 nM
O=C(Cc1ccc(Cl)cc1)NCc1cc(Br)cc2nc(O)c(O)nc12,> 10000 nM,20000 nM
Nc1ccccc1C(=O)NCc1cc([N+](=O)[O-])cc2[nH]c(=O)c(=O)[nH]c12,300 nM,170 nM
O=C(Cc1ccccc1Cl)NCc1cc(Br)cc2[nH]c(=O)c(=O)[nH]c12,> 10000 nM,7 nM
O=C(Cc1ccccc1[N+](=O)[O-])NCc1cc(Br)cc2nc(O)c(O)nc12,> 10000 nM,20 nM
O=C(NCc1cc(Br)cc2nc(O)c(O)nc12)OCc1ccccc1,~10000 nM,110 nM
Cc1ccsc1C(=O)NCc1cc(Br)cc2nc(O)c(O)nc12,~10000 nM,20 nM
O=C(NCc1cc(Br)cc2[nH]c(=O)c(=O)[nH]c12)c1ccsc1,2000 nM,10 nM
O=C(Cc1ccccc1)NCc1cc(P(=O)(O)O)cc2[nH]c(=O)c(=O)[nH]c12,> 10000 nM,> 10000 nM
O=C(Cc1ccccc1)NCc1cccc2[nH]c(=O)c(=O)[nH]c12,> 10000 nM,90 nM
Cn1cccc1C(=O)NCc1cc(Br)cc2[nH]c(=O)c(=O)[nH]c12,> 10000 nM,20 nM

# Now from value to molecule:
IC50 [1],IC50 [2],SMILES
> 10000 nM,40 nM,O=C(Cc1cccc(Cl)c1)NCc1cc(Br)cc2nc(O)c(O)nc12
4340 nM,900 nM,O=C(NCc1cc([N+](=O)[O-])cc2nc(O)c(O)nc12)Nc1ccccc1
130 nM,150 nM,O=C(NCc1cc([N+](=O)[O-])cc2[nH]c(=O)c(=O)[nH]c12)c1cc(O)c(O)c(O)c1
> 10000 nM,40 nM,O=C(Cc1cccc([N+](=O)[O-])c1)NCc1cc(Br)cc2[nH]c(=O)c(=O)[nH]c12
~10000 nM,10 nM,O=C(Cc1ccccc1)NCc1cc(Cl)cc2nc(O)c(O)nc12
> 10000 nM,10 nM,O=C(Cc1ccccc1)NCc1cc(Br)cc2[nH]c(=O)c(=O)[nH]c12
> 10000 nM,40 nM,CC(=O)OC(C(=O)NCc1cc(Br)cc2nc(O)c(O)nc12)c1ccccc1 (stereo unspecified)
> 10000 nM,3900 nM,O=C(Cc1ccc2c(c1)OCO2)NCc1cc(Br)cc2[nH]c(=O)c(=O)[nH]c12
> 10000 nM,50 nM,COc1ccc(CC(=O)NCc2cc(Br)cc3[nH]c(=O)c(=O)[nH]c23)cc1OC
> 10000 nM,860 nM,O=C(CCc1ccccc1)NCc1cc(Br)cc2nc(O)c(O)nc12
1600 nM,10 nM,O=C(NCc1cc(Br)cc2nc(O)c(O)nc12)c1cccs1
11300 nM,10 nM,O=C(Cc1ccsc1)NCc1cc(Br)cc2nc(O)c(O)nc12
> 10000 nM,1200 nM,O=C(Cc1ccc([N+](=O)[O-])cc1)NCc1cc(Br)cc2nc(O)c(O)nc12
~10000 nM,10 nM,CC(C(=O)NCc1cc(Br)cc2nc(O)c(O)nc12)c1ccccc1 (stereo unspecified)
1100 nM,350 nM,O=C(NCc1cc([N+](=O)[O-])cc2nc(O)c(O)nc12)Nc1ccc(OC(F)(F)F)cc1
1700 nM,30 nM,Cc1ccc(C(=O)NCc2cc(Br)cc3[nH]c(=O)c(=O)[nH]c23)s1
4300 nM,280 nM,O=C(NCc1cc(Br)cc2nc(O)c(O)nc12)c1cccnc1
~10000 nM,110 nM,Cc1ccc(C(=O)NCc2cc(Br)cc3nc(O)c(O)nc23)cn1
~10000 nM,1800 nM,Cc1ncccc1C(=O)NCc1cc(Br)cc2nc(O)c(O)nc12
~10000 nM,250 nM,O=C(NCc1cc(Br)cc2nc(O)c(O)nc12)c1ccncc1
